# Reference: paper PMC6010545, “Identification of a Novel Polyamine Scaffold With Potent Efflux Pump Inhibition Activity Toward Multi-Drug Resistant Bacterial Pathogens” (Frontiers in Microbiology, 2018)
# Read-outs that look alike come from different tables or passages of the source.
# Legend:
# [1] = tested on: tetracycline-resistant P. aeruginosa isolate 1419; assay: Checkerboard potentiation assay with tetracycline; format: cell-based, Pseudomonas aeruginosa; conditions: for EC50: Pseudomonas aeruginosa, 20 h, inhibitor alone, 25 μg mL^-1 highest concentration tested, read-out: EPI* (inhibitory concentration of efflux pump inhibitor alone); for TPI (inhibitory concentration of polyamine alone): 25 µg ml-1 highest tested
# Protocol: (§1) Scaffold ranking library samples and individual polyamines were screened using checkerboard inhibitory assays to assess the potentiation of tetracycline and chloramphenicol. The test utilized a 96-well plate microtiter assay where the concentration of the scaffold or individual polyamine was decreased from 25 to 0.8 μg mL^-1 (average molarity of mixture samples 65 to 4 μM) along the rows, and the concentration of tetracycline or chloramphenicol was increased from 0.4 to 100 μM across the columns. […] However, with the known antibiotics, we report EC90 values in μM, which more accurately describes purified compounds. Plates were incubated statically at 37°C for 20 h, and the optical density (OD600) was determined using a Synergy 2 plate reader (BioTek). Potentiation modeling (detailed below) was performed to determine fold change in the 50 and 90% effective concentration of tetracycline or chloramphenicol.
# Potentiation was quantified using a mathematical model developed by our group to assess the ability of library samples and individual compounds to effectively enhance the activity of tetracycline or chloramphenicol ([Hoel, 1987]). […] In this way, only libraries and compounds that potentiated tetracycline or chloramphenicol activity were pursued. The model is based on the following equation for modeling the percentage activity of a mixture of two agents with independent action ([Hoel, 1987]):
# %Antibiotic & Comp(X1,X2)=%Antibiotic(X1)+%Comp(X2)−%Antibiotic(X1)⋅%Comp(X2)
# Here, x1 and x2 are the concentrations of antibiotic (tetracycline or chloramphenicol) and library/compound (Comp) tested, respectively. This equation can be rearranged to model the effective percent activity (EC) of the antibiotic alone, after accounting for compound activity:
# Eff%Antibiotic(X1)=%Antibiotic & Compound(X1,X2)−%Compound(X2)/1−%Compound(X2)
# Thus, the model-adjusted checkerboards show the antibiotic activity post-potentiation, and from that one can determine the true change in Mic.
# [2] = tested on: P. aeruginosa proficient (1419) and deficient (1418) strain; assay: Aztreonam combination testing in efflux proficient and deficient strains; format: cell-based; conditions: strain 1419 (efflux proficient); polyamine 12.5 μg mL^-1, ½ X MIC aztreonam
# Protocol: FIGURE 6 Confirming efflux pump inhibition by polyamines using efflux deficient strains. (A) A P. aeruginosa proficient (1419) and deficient (1418) strain were subjected to combination testing of the polyamines at 12.5 μg mL^-1 and ½ X MIC of aztreonam. Fold potentiation was calculated by dividing the CFU mL^-1 for aztreonam only by the CFU mL^-1 of the combined treatment groups. (B) Lead polyamine 247 was assessed for its ability to potentiate the activity of chloramphenicol toward S. aureus strain United States 300 and its norA mutant. Shown is the potentiated chloramphenicol EC90 calculated as described in A. Error bars are shown ± SEM.
# MTT cytotoxicity assay = format: cell-based; conditions: human, 25 μg mL^-1, 48 h, read-out: percent recovery (cell viability)
# Protocol: To assess toxicity of polyamine compounds we used HepG2 human liver carcinoma cells and Hek293T human embryonic kidney epithelial cells. The viability of cell lines was determined using a 3-(4,5-dimethylthiazol-2-yl)-2,5-diphenyltetrazolium bromide (MTT) molecular probe as previously described by our group ([Fleeman et al., 2015]). Briefly, 247, 266, 271 (Hek293T), or 250, 271, 314 (HepG2), alongside control efflux pump inhibitor PaβN, were diluted in 10% DMF from 25 μg mL^-1 to 3 μg mL^-1 using twofold dilutions, before being added to cells in DMEM with 10% FBS and 1% penicillin/streptomycin. Cells were then incubated for 48 h at 37°C with 5% CO2. Following this, viability was assessed by the addition of MTT and measuring the OD570 in a Biotek plate reader. Percent recovery was determined compared to no drug controls.
# A. baumannii (1643) = assay: Potentiation of levofloxacin; format: cell-based; conditions: increasing polyamine concentration
# P. aeruginosa (1419) = assay: Checkerboard potentiation assay with chloramphenicol; format: cell-based; conditions: increasing polyamine concentration
# Protocol: as §1
# Potentiation was quantified using a mathematical model developed by our group to assess the ability of library samples and individual compounds to effectively enhance the activity of tetracycline or chloramphenicol ([Hoel, 1987]). […] In this way, only libraries and compounds that potentiated tetracycline or chloramphenicol activity were pursued. […]
# [3] = 25 µg ml-1 TPI, EC50 tetracycline no TPI / with TPI
# [4] = 25 µg ml-1 TPI, EC90 tetracycline no TPI / with TPI
# [5] = EC50 tetracycline without EPI / with EPI
# [6] = EC90 tetracycline without EPI / with EPI
# [7] = Hek293T human embryonic kidney epithelial cells, vs solvent only controls
smiles,measurement,setting,value
NCCC[C@H](CN)NC[C@H](Cc1ccccc1)NCCc1ccccc1 [compound 271],FP* (fold potentiation of tetracycline EC50),[1]; [3],8.2 fold
same,FP# (fold potentiation of tetracycline EC90),[1]; [4],8.5 fold
same,FP* (fold potentiation of tetracycline EC50),[1]; [5],8.2 fold
same,FP# (fold potentiation of tetracycline EC90),[1]; [6],8.5 fold
same,EC50,[1],> 25 µg/mL
same,TPI (inhibitory concentration of polyamine alone),[1],> 25 µg/mL
same,potentiation of aztreonam,[2],best potentiators of aztreonam
same,"recovery at 48 h, 25 μg mL^-1",MTT cytotoxicity assay; [7],75%
same,"recovery at 48 h, 25 μg mL^-1",MTT cytotoxicity assay; HepG2 human liver carcinoma cells,74%
same,potentiation of levofloxacin,A. baumannii (1643),dose response curve of antibiotic potentiation
CNCCCC[C@H](CN)NC[C@H](Cc1ccccc1)NCCc1ccccc1 [compound 266],FP* (fold potentiation of tetracycline EC50),[1]; [3],6.8 fold
same,FP# (fold potentiation of tetracycline EC90),[1]; [4],5.8 fold
same,FP* (fold potentiation of tetracycline EC50),[1]; [5],6.8 fold
same,FP# (fold potentiation of tetracycline EC90),[1]; [6],5.8 fold
same,EC50,[1],> 25 µg/mL
same,TPI (inhibitory concentration of polyamine alone),[1],> 25 µg/mL
same,potentiation of chloramphenicol EC90,P. aeruginosa (1419),highest potentiation values
same,"recovery at 48 h, 25 μg mL^-1",MTT cytotoxicity assay; [7],72%
